Laboratory results taken from US20250241901A1, “ACTIVATION OF MNRR1 / CHCHD2 AS A THERAPEUTIC TARGET FOR MITOCHONDRIA ASSOCIATED DISORDERS” (Wayne State University, priority 2024, published 2025).

How the values were obtained:
Assay type in all cases: cell-based, human
RBPJk = test: COX412-luciferase dual luciferase reporter assay in MELAS cybrid cells overexpressing MNRR1; conditions: MELAS cybrid cells overexpressing MNRR1, 0.5 μM
From the text: FIGS. 12A-12C: FIG. 12A: Dual luciferase reporter assay showing relative activation of MNRR1-luciferase levels in MELAS cybrid cells overexpressing varying proportions of empty vector (EV) and constitutively active RBPJk (RBP-CA). FIG. 12B: Dual luciferase reporter assay showing relative activation of MNRR1-luciferase levels in MELAS cybrid cells overexpressing an empty vector (EV) or constitutively active RBPJk (RBP-CA) and HIF2α. FIG. 12C: Dual luciferase reporter assay showing relative activation of COX412-luciferase levels in MELAS cybrid cells overexpressing an empty vector (EV), MNRR1, and MNRR1+Auranofin (0.5 μM).
Luciferase reporter assay: Luciferase assays were performed with the dual-luciferase reporter assay kit (Promega). Briefly, cells were lysed in 1× passive lysis buffer (Promega) and 25 μL of lysate was used for assay with a tube luminometer using an integration time of 10 s. Transfection efficiency was normalized with the co-transfected pRL-SV40 Renilla luciferase expression plasmid.

MNRR1 = MNRR1 protein levels in MELAS cybrid cells (immunoblot); conditions: MELAS cybrid cells, 10 μM, 24 h
Protocol: FIGS. 6A-6C: FIG. 6A: Above, Chemical structures of nitazoxanide, its metabolites, and similar compounds. Abbreviations: P4, Phenyl-4-aminosalicylic acid; 4ABA, 4-Aminobenzanilide; 4ASA, 4-Amino salicylic acid; BA, Benzanilide; PBO, Phenyl benzoate; PSA, Phenyl salicylic acid; 2AN, 2-Amino 5-nitrothiazole. Below, Equal amounts of lysates of MELAS cells treated with Vehicle (DMSO) or the various compounds (10 μM) for 24 h were separated on an SDS-PAGE gel and probed for MNRR1 levels. Actin was probed as a loading control and numbers below represent an average and SD of 3 biological replicates. FIGS. 6B-6C: MNRR1 transcript levels are shown relative to 18S rRNA (n=4 biological replicates, error bars represent SE). In all figures, * indicates p<0.05, ** indicates p<0.005.
FIGS. 11A-11F: RBPJk and HIF2α compete for binding at the ORE in the MNRR1 promoter to regulate transcription. FIG. 11A: Chromatin immunoprecipitation-qPCR assessing binding of HIF2α to the endogenous MNRR1 promoter in MELAS cybrid cells with 0% (CL9) and 70% heteroplasmy (DW7). FIG. 11B: Dual luciferase reporter assay showing relative activation of MNRR1-luciferase levels in MELAS cybrid cells overexpressing varying proportions of constitutively active RBPJk (RBP-CA) and HIF2α. FIG. 11C: Dual luciferase reporter assay showing relative activation of MNRR1-luciferase levels in MELAS cybrid cells overexpressing the WT (FIG. 9A) or ΔORE (positions 47-53 in SEQ ID NO: 25 in FIG. 9C) promoter with EV (dotted line) or HIF2α. FIG. 11D: Equal amounts of Control or HIFα knockdown (KD) MELAS cybrid cell lysates were separated on an SDS-PAGE gel and probed for HIF2α and MNRR1 levels. Tubulin was probed as loading control. FIG. 11E: Oxygen consumption measured from Control or HIFα knockdown (KD) MELAS cybrid cells. (n=4 biological replicates, error bars represent SE). FIG. 11F: Left, Oxygen consumption measured from MELAS cybrid cells treated with vehicle (DMSO) or PT2385 (10 μM), an inhibitor of HIF2α function, for 24 h. Right, Equal amounts of MELAS cybrid cell lysates treated with vehicle (DMSO) or PT2385 (10 μM) for 24 h, separated on an SDS-PAGE gel, and probed for MNRR1 levels. GAPDH was probed as a loading control.
Immunoblotting: Immunoblotting was performed as described previously. Cell lysates for immunoblotting were prepared using RIPA buffer (Abcam, Waltham, MA) and included a protease and phosphatase inhibitor cocktail (Sigma, St. Louis, MO). […] The clear supernatants were transferred to new tubes and quantified using the Bradford reagent with BSA as standard (BioRad, Hercules. CA). […] For detection after immunoblotting, the SuperSignal™ West Pico PLUS substrate (ThermoFisher, Waltham, MA) was used to generate chemiluminescence signal, which was detected with X-Ray film (RadTech, Vassar, MI).

MELAS cybrid cells = test: Oxygen consumption of MELAS cybrid cells (Seahorse); conditions: 10 μM, 24 h
Protocol: FIGS. 7A-7E: MNRR1 activation by tizoxanide enhances mtDNA biogenesis and mitophagy to shift heteroplasmy in MELAS cells. FIG. 7A: Oxygen consumption measured from MELAS cybrid cells treated with vehicle (DMSO) or tizoxanide (10 μM) for 48 h (n=4 biological replicates, error bars represent SE). FIG. 7B: Haelll restriction enzyme digestion of a PCR-amplified fragment of mtDNA harboring the m.3243A>G mutation from DW7 cells treated with vehicle (DMSO) or tizoxanide (10 μM) for 144 h. […] FIG. 7C: Genes identified using qPCR of MELAS cybrid cells stably overexpressing EV or MNRR1. FIG. 7D: MtDNA levels are shown relative to nuclear DNA (nDNA) (GAPDH) (n=5 biological replicates, error bars represent SE). […]
FIGS. 11A-11F: RBPJk and HIF2α compete for binding at the ORE in the MNRR1 promoter to regulate transcription. […] FIG. 11E: Oxygen consumption measured from Control or HIFα knockdown (KD) MELAS cybrid cells. […] FIG. 11F: Left, Oxygen consumption measured from MELAS cybrid cells treated with vehicle (DMSO) or PT2385 (10 μM), an inhibitor of HIF2α function, for 24 h. […]
Intact cellular oxygen consumption and measurement of ATP: Cellular oxygen consumption was measured with a Seahorse XFe24 Bioanalyzer (Agilent). Cells were plated at a concentration of 3.5×10^4 per well a day prior to treatment and basal oxygen consumption was measured 48 h after treatments, as described. […]

| Structure (SMILES) | MNRR1 induced transcription (COX412-luciferase) (RBPJk) | MNRR1 protein (MNRR1) | OCR (MELAS cybrid cells) |
| --- | --- | --- | --- |
| CC(=O)OC[C@H]1O[C@@H]([S-])[C@H](OC(C)=O)[C@@H](OC(C)=O)[C@@H]1OC(C)=O.CCP(CC)CC.[Au+] [Auranonfin, Auranofin] | able to block the effects of MNRR1 induced transcription |  |  |
| CS(=O)(=O)c1ccc(Oc2cc(F)cc(C#N)c2)c2c1[C@H](O)C(F)(F)C2 [PT2385] |  | rebound increase | rebound increase |
